Key:
TNF α = TNF α level of cultured cells from dosed mice; type: in vivo, ICR mice; conditions: 0.02 g/kg, 10 days
Protocol: 60 ICR mice, 1822 g, half male and half female, were divided into 6 groups at random. Each group was drenched of the correspondent medicines including the different dosages of Fengshiping and the other medicines. The medicines were administrated once a day for 10 days. 24 hours after the last administration, the mice were sampled the macrophage and spleen cells from the abdominal cavity in the aseptic condition. The samples were washed with Hank's liquor for 2 times and non-serum RPIM 1640 liquor for 1 time. Then the washed samples were diluted to the suspension with the 5% FCS-RPMI 1640 at the concentration of 2×10^8/ml. Then the suspensions were added with 10 ng/ml LPS or the 10 ng/ml ConA and cultured in the 5% CO2 condition for 48 hours at 37° C. Then the cultured suspension were measured the TNF α and IL-2 levels on the usual methods.
The batten was coated by mouse TNF-α monoclonal antibody. The batten was added with the cultured supernate on the dose of 50 μl/hole. Then the batten was put still for 60 minutes at the room temperature. Then the batten was added with biotin antibody mark at 25° C. for 2 hours. Then the enzyme labeled avidin was added into the batten for 30 minutes. […] The mixed liquor was measured the OD value at the wavelength of the 450 nm. The content of the TNF-α (ng/ml) was calculated on the data of OD value by the method of standard curve.

hemolysin antibody [1] = assay: Hemolysin antibody caused by chick RBC, ICR mouse; type: in vivo; conditions: 0˜7
Protocol: (§1) 190 mice, 18-22 g weight, half male and half female, were divided into 19 groups. Each mouse was immunized with 5% CRBC solution 0.2 ml. The Fengshiping solutions were drenched at the different times. 7 days after the immunization, all the mice were sampled the blood from the eyes. Then the blood samples were diluted and measured the level of the hemolysin antibody.

IL-6 = IL-6 of spleen cells from dosed mice (MH60 cells); type: in vivo, NIH mice; conditions: 0.02 g/kg, 10 days
Protocol: (§2) 70 NIH mice, 18-22 g weight, half male and half female, were divided into 7 groups at random. All the groups were drenched with the correspondent medicines (fengshiping and the other medicines). The medicines were drenched once a day for 10 days. 24 hours after the last administration, all the mice were killed and sampled the macrophage and spleen cells from the abdominal carvity. The IL-1 and IL-6 in the samples were measured.
The spleen cells were sampled in the asepsis condition. Then the samples were washed by the Hank's liquor for 2 times and nonserum RPMI1640 liquor for 1 time. Then the clear samples were adjusted to the 2×10^6/ml cell suspension with 5% FCS-RPMI liquor. 1 ml of the suspension was added to the round-bottom centrifuge tube. After adding the ConA (10 ng/ml), the samples were cultured in the 5% CO2 at 37° C. for 72 hour.
The MH60 cells, which grew depending on the IL-6 and were on the logarithmic growth stage, were adjusted to the 1×10^5/ml cell suspension with the 5% FC-RPMI1640.
The 96-hole flat bottom cell culturing batten was added with the MH60 cell suspension on the quantity of 100 μl/hole and the culturing supernate 25 μl/hole. Then the fluid in each hole was adjusted to the 200 μl with the 5% FCS-RPMI 1640. […] And then they were measured the OD at the wavelength 570 nm and 630 nm. […]

IL-1 = IL-1 of abdominal macrophages from dosed mice; type: in vivo, NIH mice; conditions: 0.02 g/kg, 10 days
Protocol: as §2
The macrophages in the abdominal carvity were sampled in the asepsis condition. Then the samples were washed by the Hank's liquor for 2 times and nonserum RPMI1640 liquor for 1 time. Then the clear samples were adjusted to the 4×10^6/ml cell suspension with 5% FCS-RPMI liquor. 1 ml of the suspension was added to the test tube and cultured at 37° C. for 1 hour. The unadherent cells were abandoned. Then the cultured liquor was added with 5% FCS-RPMI 1640 and LPS (10 ng/ml) to culture. The cells cultured in 5% CO2 at 37° C. for 72 hours. During the course, the cultured cells were freezed and thawed for several times. The final product was saved at 4° C. The C57 mice were sampled the thymus in the asepsis condition. […]
100 μl supernate separated from the frost thawing liquor and 100 μl cell suspension of thymus were added into the 96-hole flat bottom cell-culture batten. […] The cultured cells were collected with multihead cell-harvesting apparatus and measured the cpm value. […]

hemolysin antibody [2] = assay: Hemolysin antibody caused by chick RBC, NIH mouse; type: in vivo; conditions: 0.02 g/kg, 0˜7
Protocol: as §1

DTH caused by DNFB = assay: Delayed hypersensitivity (DTH) caused by DNFB in the mouse ear; type: in vivo, NIH mouse
Protocol: Each mouse was led to hypersensitivity reaction by using the 1% DNFB acetone solution on the dosage of 0.025 ml at the right place of the abdomen where the pilus had been cut yet. Using the same solution on the same place was to enhance the hypersensitivity reaction on the third day. On the fifth day, all the mice were smeared with the 1% DNFB edible oil solution at the mice's right ears on the dosage of 0.01 ml each. 24 hours later, all the mice were killed. The mouse's 2 ears were weighted by the torsion balance and the difference of the 2 ears was recorded as the DTH degree caused by the DNFB. The experiment was carried out on the different immune and administration processes.
The immune and administration processes is as following: [drawing 1]

[3] = 0.05 g/kg, administration day −2˜0
[4] = 0.05 g/kg, administration day −2˜2
[5] = 0.1 × 3 g/kg, 0, 2, 4 day once a day

`O=P1(N(CCCl)CCCl)NCCCO1` (centres unmarked) [cyclophosphane] was tested, and the TNF (TNF α) was 42.20 ± 9.57 pg/mL, the Hemolysin value (hemolysin antibody [1]; Table 3.2, 0.02 g/kg) was 27.80 ± 6.60 and the Inhibiting percent (hemolysin antibody [1]; Table 3.2, 0.02 g/kg) was 77.9%. It also gave a Hemolysin value (hemolysin antibody [1]; Table 3.3, 0.02 g/kg) of 25.0 ± 4.0, an Inhibiting percent (hemolysin antibody [1]; Table 3.3, 0.02 g/kg) of 90.2% and an IL-6 (IL-6) of 49.6 ± 6.7 IU/ml. The IL-1 (IL-1) was 44.5 ± 7.7 ng/mL, the Hemolysin value (hemolysin antibody [2]) was 35.0 ± 12.0 and the Inhibiting percent (hemolysin antibody [2]) was 79.3%. The “Percent of ear swelling” value (DTH caused by DNFB; [3]) was 37.47 ± 6.71, the Percent of inhibition (DTH caused by DNFB; [3]) was 11.7% and the “Percent of ear swelling” value (DTH caused by DNFB; [4]) was 39.40 ± 10.78. The Percent of inhibition (DTH caused by DNFB; [4]) was 8.1%, the “Percent of ear swelling” value (DTH caused by DNFB; [5]) was 23.00 ± 7.65 and the Percent of inhibition (DTH caused by DNFB; [5]) was 40.3%. For the same molecule, the “Percent of ear swelling” value (DTH caused by DNFB; 0.25 g/kg, −3 d) was 41.84 ± 7.75 and the Percent of inhibition (DTH caused by DNFB; 0.25 g/kg, −3 d) was −8.7%.

From patent US20050220906A1, “Pharmaceutical composition for treating rheumatism and the preparation thereof” (priority 2002, published 2005)
